Experimental data: BindingDB's records for doi:10.3109/14756366.2012.677838 (Inonu University, 2013)

Target: Carbonic anhydrase 2 (Homo sapiens, UniProt P00918)
Assay: CA Enzyme Assay
Details: pH 10
Description: (§1) CA activity was measured by the Maren method which is based on determination of the time required for the pH to decrease from 10.0 to 7.4 due to CO2 hydration [Maren et al., J. Pharm. Exp. Ther., 130:2629-2634]. The assay solution was 0.5 M Na2CO3/0.1 M NaHCO3 (pH 10.0) and Phenol Red was added as the pH indicator.

IC50 [µM]	SMILES
29.7	C=CCN1CN(Cc2cc(=O)oc3c(O)c(O)ccc23)c2ccccc21 [1-Allyl-3-(4-methyl-7,8-dihydroxy-2H-chromen-2-one)benzimidazolium chloride (3c)]
41.4	COCCN1CN(Cc2cc(=O)oc3c(O)c(O)ccc23)c2ccccc21 [1-(2-Methoxyethyl)-3-(4-methyl-7,8-dihydroxy-2H-chromen-2-one)benzimidazolium chloride (3d)]
33.2	CCOCCN1CN(Cc2cc(=O)oc3c(O)c(O)ccc23)c2ccccc21 [1-(2-Ethoxyethyl)-3-(4-methyl-7,8-dihydroxy-2H-chromen-2-one)benzimidazolium chloride (3e)]
28.9	Cc1cccc(CN2CN(Cc3cc(=O)oc4c(O)c(O)ccc34)c3ccccc32)c1 [1-(3-Methylbenzyl)-3-(4-methyl-7,8-dihydroxy-2H-chromen-2-one)benzimidazolium chloride (3g)]

Target: Carbonic anhydrase 1 (Homo sapiens, UniProt P00915)
Assay: CA Enzyme Assay
Details: pH 10
Description: as §1

Carbonic anhydrase 1, sequence (P00915 whole entry): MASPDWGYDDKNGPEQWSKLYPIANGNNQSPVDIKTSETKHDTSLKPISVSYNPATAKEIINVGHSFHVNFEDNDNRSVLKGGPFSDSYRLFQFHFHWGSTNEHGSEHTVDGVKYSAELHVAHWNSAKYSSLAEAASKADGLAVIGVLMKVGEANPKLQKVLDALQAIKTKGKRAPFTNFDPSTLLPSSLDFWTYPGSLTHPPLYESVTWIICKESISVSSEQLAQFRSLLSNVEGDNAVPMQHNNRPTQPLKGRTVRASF

IC50 [µM]	SMILES
48.1	C=CCN1CN(Cc2cc(=O)oc3c(O)c(O)ccc23)c2ccccc21 [1-Allyl-3-(4-methyl-7,8-dihydroxy-2H-chromen-2-one)benzimidazolium chloride (3c)]
32.6	COCCN1CN(Cc2cc(=O)oc3c(O)c(O)ccc23)c2ccccc21 [1-(2-Methoxyethyl)-3-(4-methyl-7,8-dihydroxy-2H-chromen-2-one)benzimidazolium chloride (3d)]
32.9	CCOCCN1CN(Cc2cc(=O)oc3c(O)c(O)ccc23)c2ccccc21 [1-(2-Ethoxyethyl)-3-(4-methyl-7,8-dihydroxy-2H-chromen-2-one)benzimidazolium chloride (3e)]
22.1	Cc1cccc(CN2CN(Cc3cc(=O)oc4c(O)c(O)ccc34)c3ccccc32)c1 [1-(3-Methylbenzyl)-3-(4-methyl-7,8-dihydroxy-2H-chromen-2-one)benzimidazolium chloride (3g)]
